# Results reported in patent publication US8404643B2, “Metastin derivatives and use thereof” (priority 2005, dated 2013).
# Square brackets hold non-standard residues; d marks the D form. Peptide text beside a SMILES is read from it. * marks the point of attachment. Arg(Me) = CNC(=N)NCCC[C@H](N)C(=O)O; Decanoyl = CCCCCCCCCC(=O)*; Ahx = NCCCCCC(=O)O; NHPentyl = CCCCCN*; azaGly = NNC(=O)O; NHcPr = C1CC1N*
# Target: T1, hOT7T175 (Homo sapiens, UniProt Q969F8)
# T1 construct: expressed in transfected cells
# Test: Assay for intracellular Ca ion level-increasing activity using FLIPR
# Type: cell-based
# Conditions: hOT7T175/CHO cells, relative to Metastin (1-54)
# Experimental: In accordance with the method described in JPA 2000-312590, the intracellular Ca ion level-increasing activity was measured using FLIPR.
# The stable expression cell line hOT7T175 was obtained by transfection of the expression plasmid pAK-rOT175 for animal cells into CHO/dhfr^− cells, using CellPhect Transfection Kit (Amersham Pharmacia Biotech, Inc.). First, 240 μL of Buffer A (attached to CellPhect Transfection Kit) was added to 9.6 μg of plasmid DNA dissolved in 240 μL of distilled water followed by stirring. After the mixture was settled for 10 minutes, 480 μL of Buffer B (attached to CellPhect Transfection Kit) was added to the mixture, which was vigorously stirred to form liposomes containing the DNA. Then, 4×10^5 CHO/dhfr^− cells (obtained from ATCC) were inoculated on a 60 mm Petri dish. After culturing the cells in Ham's F-12 medium (Nissui Seiyaku Co., Ltd.) supplemented with 10% fetal bovine serum (BIO WHITTAKER, Inc.) at 37° C. for 2 days in 5% carbon dioxide gas, […] of the liposomes were dropwise added to the cells on the Petri dish. After culturing the cells at 37° C. for 6 hours in 5% carbon dioxide gas, the cells were washed twice with serum-free Ham's F-12 medium and 3 mL of 15% glycerol was added to the cells on the Petri dish followed by treatment for 2 minutes. The cells were again washed twice with serum-free Ham's F-12 medium followed by incubation in Ham's F-12 medium supplemented with 10% fetal bovine serum at 37° C. for 15 hours in 5% carbon dioxide gas. The cells were dispersed by trypsin treatment to recover from the Petri dish. The recovered cells were inoculated on a 6-well plate in 1.25×10^4 cells/well and incubation was initiated at 37° C. in Dulbecco's modified Eagle medium (DMEM) medium (Nissui Seiyaku Co., Ltd.) containing 10% dialyzed fetal bovine serum (JRH BIOSCIENCES, Inc.) in 5% carbon dioxide gas. The plasmid-transfected CHO transformants grew in the medium but the non-transfected cells gradually died, accordingly the medium was exchanged on Days 1 and 2 after the initiation of incubation to remove the cells died. Approximately 20 colonies of the CHO transformants that kept growing on Days 8 to 10 after the incubation were isolated. From the cells in these colonies, cells showing high reactivity with the ligand peptide metastin (hereinafter merely referred to as hOT7T175/CHO) were selected to provide for the following experiment.
# The intracellular Ca ion level-increasing activity of the synthetic peptide in hOT7T175/CHO was determined using FLIPR (Molecular Devices, Inc.).
# hOT7T175/CHO was subcultured in DMEM supplemented with 10% dialyzed fetal bovine serum (hereinafter abbreviated as dFBS) (hereinafter referred to as 10% dFBS/DMEM) and provided for the experiment. The hOT7T175/CHO was suspended in 10% dFBS-DMEM in 15×10^4 cells/ml. The suspension was inoculated on a 96-well plate for FLIPR (Black Plate Clear Bottom, Coster, Inc.) at 200 μl/well (3.0×10^4 cells/200 μL/well), followed by incubation at 37° C. overnight in a 5% CO2 incubator (hereinafter referred to as the cell plate). Then, 21 ml of HANKS/HBSS (9.8 g of HANKS, 0.35 g of sodium hydrogencarbonate, 20 ml of 1M HEPES; after adjusting the pH to 7.4 with 1N sodium hydroxide, the mixture was sterilized by filtration), 210 μl of 250 mM Probenecid and 210 μl of fetal bovine serum (FBS) (HANKS/HBSS-Probenecid-FBS) were mixed.
# Furthermore, 2 vials of Fluo3-AM (50 μg/vial) were dissolved in 21 μL of dimethylsulfoxide and 21 μL of 20% Pluronic acid. The resulting solution was added to and mixed with 10 ml of the HANKS/HBSS-Probenecid-FBS described above. After the culture medium was removed, the mixture was dispensed onto the cell plate in 100 μl each/well, followed by incubation at 37° C. for an hour in a 5% CO2 incubator (pigment loading). The peptide was dissolved in dimethylsulfoxide in 1×10^−3 M. The peptide solution was diluted with HANKS/HBSS containing 2.5 mM Probenecid, 0.2% BSA and 0.1% CHAPS. […]
# T1 sequence (Q969F8 whole entry L364H): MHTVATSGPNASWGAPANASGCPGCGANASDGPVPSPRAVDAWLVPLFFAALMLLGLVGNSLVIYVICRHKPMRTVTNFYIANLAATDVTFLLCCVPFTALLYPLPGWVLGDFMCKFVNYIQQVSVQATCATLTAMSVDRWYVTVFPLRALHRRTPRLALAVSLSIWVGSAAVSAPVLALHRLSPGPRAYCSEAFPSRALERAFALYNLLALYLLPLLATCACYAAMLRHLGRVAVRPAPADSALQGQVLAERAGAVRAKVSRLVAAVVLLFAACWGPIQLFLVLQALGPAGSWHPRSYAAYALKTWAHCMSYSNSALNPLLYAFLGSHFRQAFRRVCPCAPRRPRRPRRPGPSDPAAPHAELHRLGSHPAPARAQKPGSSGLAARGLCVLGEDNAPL
row,Structure (SMILES),Specific Activity: intracellular Ca ion level-increasing activity [specific activity to Metastin (1-54)]
1,"CC(=O)N[C@H](Cc1ccc(O)cc1)C(=O)N[C@H](Cc1c[nH]c2ccccc12)C(=O)N[C@@H](CC(N)=O)C(=O)N[C@H](C(=O)N[C@@H](Cc1ccccc1)C(=O)NNC(=O)N[C@@H](CC(C)C)C(=O)N[C@H](CCCNC(=N)N)C(=O)N[C@@H](Cc1c[nH]c2ccccc12)C(N)=O)[C@@H](C)O [Compound No. 708, Ac-D-Tyr-D-Trp-Asn-Thr-Phe-AzaGly-Leu-D-Arg-Trp-NH2] (Ac-[dY][dW]NTF[azaGly]L[dR]W-NH2)",12.8
2,"CNC(=N)NCCC[C@H](NC(=O)[C@H](CC(C)C)NC(=O)NNC(=O)[C@H](Cc1ccccc1)NC(=O)[C@@H](NC(=O)[C@H](CC(N)=O)NC(C)=O)[C@@H](C)O)C(=O)N[C@@H](Cc1c[nH]c2ccccc12)C(N)=O [Compound No. 709, Ac-Asn-Thr-Phe-AzaGly-Leu-Arg(Me)-Trp-NH2] (Ac-NTF[azaGly]L[Arg(Me)]W-NH2)",9.8
3,"CCCCCCCCCC(=O)N[C@@H](CC(N)=O)C(=O)N[C@H](C(=O)N[C@@H](Cc1ccccc1)C(=O)NNC(=O)N[C@@H](CC(C)C)C(=O)N[C@@H](CCCNC(=N)NC)C(=O)N[C@@H](Cc1c[nH]c2ccccc12)C(N)=O)[C@@H](C)O [Compound No. 710, Decanoyl-Asn-Thr-Phe-AzaGly-Leu-Arg(Me)-Trp-NH2] (Decanoyl-NTF[azaGly]L[Arg(Me)]W-NH2)",7.2
4,"CNC(=N)NCCC[C@H](NC(=O)[C@H](CC(C)C)NC(=O)NNC(=O)[C@H](Cc1ccccc1)NC(=O)[C@@H](NC(=O)[C@H](CC(N)=O)NC(=O)CCCCCN)[C@@H](C)O)C(=O)N[C@@H](Cc1c[nH]c2ccccc12)C(N)=O [Compound No. 712, Acp-Asn-Thr-Phe-AzaGly-Leu-Arg(Me)-Trp-NH2] (H-[Ahx]NTF[azaGly]L[Arg(Me)]W-NH2)",8.9
5,"CNC(=N)NCCC[C@H](NC(=O)[C@H](CC(C)C)NC(=O)NNC(=O)[C@H](Cc1ccccc1)NC(=O)[C@@H](NC(=O)[C@H](CC(N)=O)NC(=O)CCCCCNC(C)=O)[C@@H](C)O)C(=O)N[C@@H](Cc1c[nH]c2ccccc12)C(N)=O [Compound No. 713, Ac-Acp-Asn-Thr-Phe-AzaGly-Leu-Arg(Me)-Trp-NH2] (Ac-[Ahx]NTF[azaGly]L[Arg(Me)]W-NH2)",3.7

# Now from value to compound:
row,Specific Activity: intracellular Ca ion level-increasing activity [specific activity to Metastin (1-54)],Structure (SMILES)
1,2.0,"CNC(=N)NCCC[C@H](NC(=O)[C@H](CC(C)C)NC(=O)NNC(=O)[C@H](Cc1ccccc1)NC(=O)[C@@H](NC(=O)[C@H](CC(N)=O)NC(=O)C(CC1CCNCC1)NC(=O)[C@@H](Cc1ccc(O)cc1)NC(C)=O)[C@@H](C)O)C(=O)N[C@@H](Cc1c[nH]c2ccccc12)C(N)=O (mixture of isomers) [Compound No. 774, Ac-D-Tyr-DL-Ala(Pip)-Asn-Thr-Phe-AzaGly-Leu-Arg(Me)-Trp-NH2]"
2,0.7,"CCCCCNC(=O)C[C@H](NC(=O)[C@@H](Cc1c[nH]c2ccccc12)NC(=O)[C@@H](Cc1ccc(O)cc1)NC(C)=O)C(=O)N[C@H](C(=O)N[C@@H](Cc1ccccc1)C(=O)NNC(=O)N[C@@H](CC(C)C)C(=O)N[C@@H](CCCNC(=N)NC)C(=O)N[C@@H](Cc1c[nH]c2ccccc12)C(N)=O)[C@@H](C)O [Compound No. 714, Ac-D-Tyr-D-Trp-Asp(NHPen)-Thr-Phe-AzaGly-Leu-Arg(Me)-Trp-NH2] (Ac-[dY][dW]D(NHPentyl)TF[azaGly]L[Arg(Me)]W-NH2)"
3,1.6,"CNC(=N)NCCC[C@H](NC(=O)[C@H](CC(C)C)NC(=O)NNC(=O)[C@H](Cc1ccccc1)NC(=O)[C@@H](NC(=O)[C@H](CC(=O)NC1CC1)NC(=O)[C@@H](Cc1c[nH]c2ccccc12)NC(=O)[C@@H](Cc1ccc(O)cc1)NC(C)=O)[C@@H](C)O)C(=O)N[C@@H](Cc1c[nH]c2ccccc12)C(N)=O [Compound No. 715, Ac-D-Tyr-D-Trp-Asp(NHcPr)-Thr-Phe-AzaGly-Leu-Arg(Me)-Trp-NH2] (Ac-[dY][dW]D(NHcPr)TF[azaGly]L[Arg(Me)]W-NH2)"
